From patent US6083944A, “Quinoline-containing α-ketoamide cysteine and serine protease inhibitors” (Cephalon, Inc., priority 1998, dated 2000) come the findings set out here.

The target in one assay is T1, Recombinant human calpain I (Homo sapiens, UniProt P07384).
T1 construct: made in house
T1 sequence (P07384 1-714): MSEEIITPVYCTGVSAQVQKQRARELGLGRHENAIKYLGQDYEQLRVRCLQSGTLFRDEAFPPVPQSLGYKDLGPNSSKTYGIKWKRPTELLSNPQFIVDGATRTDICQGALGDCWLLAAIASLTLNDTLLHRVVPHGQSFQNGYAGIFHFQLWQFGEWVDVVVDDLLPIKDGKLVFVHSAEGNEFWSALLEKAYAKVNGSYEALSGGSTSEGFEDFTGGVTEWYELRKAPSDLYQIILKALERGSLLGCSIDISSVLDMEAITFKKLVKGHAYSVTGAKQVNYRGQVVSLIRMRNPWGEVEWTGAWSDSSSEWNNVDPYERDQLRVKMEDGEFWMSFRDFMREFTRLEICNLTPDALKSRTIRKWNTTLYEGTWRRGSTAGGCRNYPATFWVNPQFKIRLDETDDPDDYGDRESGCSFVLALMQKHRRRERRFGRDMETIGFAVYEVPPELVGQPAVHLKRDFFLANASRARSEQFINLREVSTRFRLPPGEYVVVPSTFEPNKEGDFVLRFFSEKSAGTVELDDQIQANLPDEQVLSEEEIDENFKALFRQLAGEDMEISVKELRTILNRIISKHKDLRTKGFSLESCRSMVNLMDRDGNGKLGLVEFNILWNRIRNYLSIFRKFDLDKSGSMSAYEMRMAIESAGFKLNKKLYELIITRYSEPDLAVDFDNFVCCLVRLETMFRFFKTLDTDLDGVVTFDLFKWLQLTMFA
Description: Inhibition of calpain I (Succ-Leu-Tyr-MNA hydrolysis). It counts as biochemical. Conditions: Table 5; head prints no unit. As for the experimental part: To evaluate inhibitory activity, stock solutions (40 times concentrated) of each compound to be tested were prepared in 100% anhydrous DMSO and 5 μl of each inhibitor preparation was aliquoted into each of three wells of a 96-well plate. Recombinant human calpain I, prepared by the method of Meyer et al. (Biochem. J. 1996, 314: 511-519), was diluted into assay buffer (i.e., 50 mM Tris, 50 mM NaCl, 1 mM EDTA, 1 mM EGTA, and 5 mM β-mercaptoethanol, pH 7.5, including 0.2 mM Succ-Leu-Tyr-MNA), and 175 μl was aliquoted into the same wells containing the independent inhibitor stocks as well as to positive control wells containing 5 μl DMSO, but no compound. To start the reaction, 20 μl of 50 mM CaCl2 in assay buffer was added to all wells of the plate, excepting three, which were used as background signal baseline controls. Substrate hydrolysis was monitored every 5 minutes for a total of 30 minutes. Substrate hydrolysis in the absence of inhibitor was linear for up to 15 minutes.
Inhibition of calpain I activity was calculated as the percent decrease in the rate of substrate hydrolysis in the presence of inhibitor relative to the rate in its absence. Comparison between the inhibited and control rates was made within the linear range for substrate hydrolysis. The IC50 S of inhibitors (concentration yielding 50% inhibition) were determined from the percent decrease in rates of substrate hydrolysis in the presence of five to seven different concentrations of the test compound. The results were plotted as percent inhibition versus log inhibitor concentration, and the IC50 was calculated by fitting the data to the four-parameter logistic equation shown below using the program GraphPad Prism (GraphPad Software, Inc., San Diego, Calif.).
The parameters a, b, c, and d are defined as follows: a is % inhibition in the absence of inhibitor, b is the slope, c is the IC50, and d is the % inhibition at an infinite concentration of inhibitor.
Regarding `COCC(NC(=O)c1cc(Cl)nc2ccccc12)C(=O)C(=O)NCCNS(=O)(=O)c1ccc(-c2ccccn2)s1` (stereo not drawn) [Example 157], the IC50 is 61 nM.
Consider `CCCCC(NC(=O)c1cc(Cl)nc2ccccc12)C(=O)C(=O)NCCNS(=O)(=O)c1ccc([N+](=O)[O-])cc1` (stereo not drawn) [Example 149], for which the IC50 turned out to be 23 nM.
Regarding `O=C(NCCNS(=O)(=O)c1ccc(-c2ccccn2)s1)C(=O)C(Cc1ccccc1)NC(=O)c1nc(-c2ccccc2)nc2ccccc12` (stereo not drawn) [Example 154], the 50% inhibitory concentration (IC50) came out at 83 nM.
`CCCCC(NC(=O)c1cc(Cl)nc2ccccc12)C(=O)C(=O)NCCNS(=O)(=O)c1ccc(Cl)c(Cl)c1` (stereo not drawn) [Example 151]: the IC50 stood at 217 nM.

The assay is the same for the next values; noted with them: Tables 2-4; pH 7.5.
With `Cc1cc(C(=O)NC(Cc2ccccc2)C(=O)C(=O)NCCNS(=O)(=O)c2ccc(-c3ccccn3)s2)c2ccccc2n1` (single isomer, unassigned) [Example 142], the IC50 was 24 nM.
On to `O=C(NCCNS(=O)(=O)c1ccc(-c2ccccn2)s1)C(=O)C(Cc1ccccc1)NC(=O)c1cc(C2CC2)nc2ccccc12` (stereo not drawn) [Example 145], for which the IC50 was 71 nM.
For the compound `O=C(NCCc1ccccc1)C(=O)C(Cc1ccccc1)NC(=O)c1cc(C#Cc2ccccc2)nc2ccccc12` (stereo not drawn) [Example 43], the IC50 turned out to be 390 nM.
As for `O=C(NCCNS(=O)(=O)c1ccccc1)C(=O)C(Cc1ccccc1)NC(=O)c1cc(C#Cc2ccccc2)nc2ccccc12` (stereo not drawn) [Example 95], the IC50 amounted to 43 nM.
The same measure, in the same setting: the result for `NS(=O)(=O)c1ccc(CNC(=O)C(=O)C(Cc2ccccc2)NC(=O)c2cc(C#Cc3ccccc3)nc3ccccc23)cc1` (stereo not drawn) [Example 39] reads 184 nM; that for `O=C(NCCS(=O)(=O)Nc1ccccc1)C(=O)C(Cc1ccccc1)NC(=O)c1cc(Cl)nc2ccccc12` (stereo not drawn) [Example 147], 81 nM; that for `O=C(NCCNS(=O)(=O)c1ccc(-c2ccccn2)s1)C(=O)[C@H](Cc1ccccc1)NC(=O)c1cc(Cl)nc2ccccc12` [Example 144], 14 nM.
In the case of `O=C(NCCNC(=O)C(=O)C(Cc1ccccc1)NC(=O)c1cc(C#Cc2ccccc2)nc2ccccc12)NC12CC3CC(CC(C3)C1)C2` (stereo not drawn) [Example 63], the IC50 is 257 nM.
Still for that read-out and setting: next, `O=C(NCc1ccccc1)C(=O)[C@H](Cc1ccccc1)NC(=O)c1cc(C#Cc2ccccc2)nc2ccccc12` [Example 36]: 79 nM; `O=C(NC1CCCCNC1=O)C(=O)C(Cc1ccccc1)NC(=O)c1cc(C#Cc2ccccc2)nc2ccccc12` (stereo not drawn) [Example 22]: 78 nM; `O=C(NCCNS(=O)(=O)c1cccnc1)C(=O)C(Cc1ccccc1)NC(=O)c1cc(Cl)nc2ccccc12` (single isomer, unassigned) [Example 141]: 87 nM.
In the case of `O=C(NCCCCc1ccccc1)C(=O)C(Cc1ccccc1)NC(=O)c1cc(C#Cc2ccccc2)nc2ccccc12` (stereo not drawn) [Example 34], the IC50 turned out to be 227 nM.
On to `O=C(NCCNS(=O)(=O)Cc1ccccc1)C(=O)C(Cc1ccccc1)NC(=O)c1cc(C#Cc2ccccc2)nc2ccccc12` (stereo not drawn) [Example 92], for which the 50% inhibitory concentration (IC50) turned out to be 94 nM.
As for `COc1ccc2nc(C)cc(C(=O)NC(Cc3ccccc3)C(=O)C(=O)NCCNS(=O)(=O)c3ccc(-c4ccccn4)s3)c2c1` (single isomer, unassigned) [Example 143], the IC50 stood at 35 nM.
With `O=C(NOCCNS(=O)(=O)c1ccccc1)C(=O)C(Cc1ccccc1)NC(=O)c1cc(C#Cc2ccccc2)nc2ccccc12` (stereo not drawn) [Example 105], the concentration for half-maximal inhibition (IC50) is 128 nM.

The assay is the same for the next values; noted with them: Tables 2-4; values in parentheses; at 10,000 nM.
Turning to `CC(C)CC(NC(=O)c1cc(C#Cc2ccccc2)nc2ccccc12)C(=O)C(=O)NCCOCCO` (stereo not drawn) [Example 114], the inhibition at 10 µM is 93%.
Still for that read-out and setting: the result for `COC(CNC(=O)C(=O)C(CC(C)C)NC(=O)c1cc(C#Cc2ccccc2)nc2ccccc12)OC` (stereo not drawn) [Example 113] reads 92%; that for `O=C(NCCCCCCNS(=O)(=O)c1cccc2c(Cl)cccc12)C(=O)C(Cc1ccccc1)NC(=O)c1cc(C#Cc2ccccc2)nc2ccccc12` (stereo not drawn) [Example 101], 84%; that for `O=C(NC1CCCCC1O)C(=O)C(Cc1ccccc1)NC(=O)c1cc(C#Cc2ccccc2)nc2ccccc12` (stereo not drawn) [Example 28], 61%.
As to `C#CCNC(=O)C(=O)C(Cc1ccccc1)NC(=O)c1cc(C#Cc2ccccc2)nc2ccccc12` (stereo not drawn) [Example 1], the inhibition at 10 µM stood at 91%.
Turning to `N#CCCNC(=O)C(=O)C(Cc1ccccc1)NC(=O)c1cc(C#Cc2ccccc2)nc2ccccc12` (stereo not drawn) [Example 5], the inhibition at 10 µM is 95%.
Turning to `O=C(NC1Cc2ccccc2C1)C(=O)C(Cc1ccccc1)NC(=O)c1cc(C#Cc2ccccc2)nc2ccccc12` (stereo not drawn) [Example 55], the inhibition at 10 µM worked out at 60%.
As to `CC(C)(C)OC(=O)N=C(NCCCCC(CO)NC(=O)C(=O)C(Cc1ccccc1)NC(=O)c1cc(C#Cc2ccccc2)nc2ccccc12)NC(=O)OC(C)(C)C` (stereo not drawn) [Example 25], the inhibition at 10 µM came to 42%.
Turning to `O=C(NCCCO)C(=O)C(Cc1ccccc1)NC(=O)c1cc(C#Cc2ccccc2)nc2ccccc12` (stereo not drawn) [Example 12], the inhibition at 10 µM was 94%.
With `O=C(NCc1cccnc1)C(=O)C(Cc1ccccc1)NC(=O)c1cc(C#Cc2ccccc2)nc2ccccc12` (stereo not drawn) [Example 46], the inhibition at 10 µM is 91%.
In the case of `O=C(NCCCCO)C(=O)C(Cc1ccccc1)NC(=O)c1cc(C#Cc2ccccc2)nc2ccccc12` (stereo not drawn) [Example 13], the inhibition at 10 µM is 100%.
For `CN(C)NC(=O)C(=O)C(Cc1ccccc1)NC(=O)c1cc(C#Cc2ccccc2)nc2ccccc12` (stereo not drawn) [Example 110], the inhibition at 10 µM amounted to 43%.
On to `O=C(NCCNS(=O)(=O)c1ccccc1)C(=O)C(Cc1ccccc1)NC(=O)c1cc(-c2cccnc2)nc2ccccc12` (stereo not drawn) [Example 136], for which the inhibition at 10 µM is 99%.
With `COC(=O)C(CCCCNC(=O)C(=O)C(Cc1ccccc1)NC(=O)c1cc(C#Cc2ccccc2)nc2ccccc12)NC(=O)OC(C)(C)C` (stereo not drawn) [Example 106], the inhibition at 10 µM is 97%.
Regarding `O=C(NCCNS(=O)(=O)c1cccc([N+](=O)[O-])c1)C(=O)C(Cc1ccccc1)NC(=O)c1cc(C#Cc2ccccc2)nc2ccccc12` (stereo not drawn) [Example 78], the inhibition at 10 µM turned out to be 88%.
Take `CC(C)(C)OC(=O)CCNC(=O)C(=O)C(Cc1ccccc1)NC(=O)c1cc(C#Cc2ccccc2)nc2ccccc12` (stereo not drawn) [Example 107]: the inhibition at 10 µM stood at 93%.
The same measure, in the same setting: the result for `CC(C)(C)OC(=O)NCCCNC(=O)C(=O)C(Cc1ccccc1)NC(=O)c1cc(C#Cc2ccccc2)nc2ccccc12` (stereo not drawn) [Example 97] reads 100%; that for `O=C(NC1CCCCC1)C(=O)C(Cc1ccccc1)NC(=O)c1cc(C#Cc2ccccc2)nc2ccccc12` (stereo not drawn) [Example 30], 85%.
Still for that read-out and setting: the result for `O=C(NC(CO)Cc1ccccc1)C(=O)C(Cc1ccccc1)NC(=O)c1cc(C#Cc2ccccc2)nc2ccccc12` (stereo not drawn) [Example 23] reads 75%; that for `O=C(NCc1ccncc1)C(=O)C(Cc1ccccc1)NC(=O)c1cc(C#Cc2ccccc2)nc2ccccc12` (stereo not drawn) [Example 47], 98%.
As for `CC(C)CC(NC(=O)c1cc(C#Cc2ccccc2)nc2ccccc12)C(=O)C(=O)NCCNC(=O)Nc1ccccc1` (stereo not drawn) [Example 116], the inhibition at 10 µM amounted to 89%.
Turning to `O=C(NCCNC(=O)C(=O)C(Cc1ccccc1)NC(=O)c1cc(C#Cc2ccccc2)nc2ccccc12)Nc1ccc(Br)cc1` (stereo not drawn) [Example 61], the inhibition at 10 µM was determined as 94%.
In the case of `O=C(NCCC1=CCCCC1)C(=O)C(Cc1ccccc1)NC(=O)c1cc(C#Cc2ccccc2)nc2ccccc12` (stereo not drawn) [Example 6], the inhibition at 10 µM is 89%.
Take `O=C(NCC1CCCO1)C(=O)C(Cc1ccccc1)NC(=O)c1cc(C#Cc2ccccc2)nc2ccccc12` (stereo not drawn) [Example 54]: the inhibition at 10 µM was 84%.
On to `C=C(C)C(=O)OCCNC(=O)C(=O)C(Cc1ccccc1)NC(=O)c1cc(C#Cc2ccccc2)nc2ccccc12` (stereo not drawn) [Example 111], for which the inhibition at 10 µM was determined as 95%.
Take `CC(C)CC(NC(=O)c1cc(C#Cc2ccccc2)nc2ccccc12)C(=O)C(=O)NCCNC(=O)OCc1ccccc1` (stereo not drawn) [Example 115]: the inhibition at 10 µM worked out at 100%.

The IC50 is the concentration that inhibits the measured activity by half. As usually defined, the inhibition is the relative decrease from the control value, in per cent.
